Test results: patent US10478501B2, “Method of treating disorders using a pharmaceutical composition of oligopeptides” (Merck Patent GmbH, priority 2011, dated 2019)

Key:
[1] = test system: HNSCC lines (FaDu, SCC-15 and SCC-25); experiment: Cellular radiosensitivity by clonogenic cell survival assay, HNSCC lines; type: cell-based, human; details: combined with γ-radiation
Method: (§1) Methods: Three non-small cell lung carcinoma lines (NSCLCs) (H460, A549 and H1299) and three head and neck squamous cell carcinoma lines (HNSCCs) (FaDu, SCC-15 and SCC-25) cell lines were used for in vitro experiments. Of these, H460 and FaDu were used for in vivo testing when grown as xenografts in nude mice. The effects of cilengitide (1-50 μg/ml, 24 h) on in vitro cell viability was determined by MTS assay and on cellular radiosensitivity by clonogenic cell survival assay after exposing the cells to graded single doses of γ-radiation with or without cilengitide (given 1 h before and continued for 23 h after irradiation). In vivo effect of cilengitide on radioresponse of xenografts was assessed by tumor growth delay. When tumor xenografts reached 7 mm in diameter cilengitide treatment (30 or 60 mg/d/5 or 10 days) was initiated followed by a single dose of 15 Gy local radiation (using ^137Cs γ-ray source), when the tumors reached 8 mm.

[2] = test system: BT474 human breast cancer cells; experiment: Her2+ breast cancer model BT474, Cilengitide in combination with Herceptin; type: in vivo, Balbc nu/nu mice; details: 300 mg/kg Cilengitide s.c. daily
Excerpt: BT474 human breast cancer cells were subcutaneously injected into Balbc nu/nu mice. The mice were randomized into different treatment groups when the tumors reached a mean tumor volume of approximately 125 mm^3.

A549 = experiment: Cellular radiosensitivity by clonogenic cell survival assay, A549; type: cell-based, human; details: combined with γ-radiation, given 1 h before and continued 23 h after irradiation
Method: as §1

[3] = test system: H460 (NSCLC) tumor xenografts; experiment: Tumor growth delay of H460 xenografts with radiation; type: in vivo, nude mice
Method: as §1

[4] = cited from earlier work
H1299 = experiment: Cellular radiosensitivity by clonogenic cell survival assay, H1299; type: cell-based, human; details: combined with γ-radiation, given 1 h before and continued 23 h after irradiation
Method: as §1

[5] = test system: 4T1 mouse breast tumour cells; experiment: Study 006: 4T1 survival model; type: in vivo, female BALB/c mice; details: 300 mg/kg daily s.c. as Composition according to Example 18; mastectomy 11 days post-inoculation
Method: 4T1 mouse breast tumour cells were orthotopically inoculated into the fourth mammary fat pad of female BALB/c mice. Treatment started seven days post-inoculation (Day 0), when the mice were randomised, based on tumour size. Animals received treatment with either Vehicle Control (Placebo), EMD 121974 (75, 150 or 300 mg/kg as a Composition according to Example 18), or Taxol® (8 mg/kg). The Vehicle Control and EMD 121974 were administered daily by subcutaneous injection. Taxol® was administered three times weekly by intravenous injection. To assess the survival of tumor bearing animals a mastectomy was performed 11 days post-inoculation (4 days after treatment start). Animals were monitored daily for clinical symptoms and were culled if body weight loss in any animal exceeded 15% of initial weight, the animal was culled or disease progression was observed (e.g. severe breathing difficulties). Body weight measurements were made three times per week.

[6] = test system: MDA-MB-231 breast cancer bone metastases; experiment: Experimental breast cancer bone metastases in nude rats: DCE-MRI parameters amplitude A and kep; type: in vivo, nude rats (RNU strain)
Method: Nude rats (RNU strain) are obtained from Harlan-Winkelmann GmbH (Borchen, Germany) at the age of six weeks and housed in a specific pathogen-free environment in a mini barrier system of the central animal facility. Animals are kept under controlled conditions (21±2° C. room temperature, 60% humidity, 12 h light-dark rhythm) and offered autoclaved food and water ad libitum. Sub-confluent MDAMB-231 cells are harvested using 0.05% Trypsin-EDTA (Gibco®; Invitrogen, Karlsruhe, Germany) counted on a Neubauer's chamber and resuspended in RPMI-1640 to a final concentration of 10^5 cells in 200 μl. Rats are anesthetized using a mixture of nitrous oxide (1 l/min), oxygen (0.5 l/min) and isoflurane (1.5 vol. %). Arterial branches of the right hind leg are dissected and 10^5 cells injected into the superficial epigastric artery as described previously.^28 Bone metastases established and are observed exclusively in the femur, tibia and fibula of the right hind leg. 30 days after cancer cell transplantation, rats (n=24) are randomly divided into two groups, one group receiving the cyclic RGD-peptide inhibitor of αvβ3/αvβ5 integrins (cilengitide, EMD 121974^14, 17, 29; Merck, Darmstadt, Germany) intraperitoneally five times per week (75 mg/kg; n=12 rats) and the other, sham-treated group, serving as a control (n=12 rats). The observation period of all animals is 55 days and no rat in the study dies ahead of schedule.
After the inoculation of cancer cells each rat is imaged at days 30, 35, 45 and 55 using (i) a flat-panel equipped volumetric computed tomograph (Volume CT, Siemens, Germany) and (ii) a 1.5T clinical magnetic resonance scanner (Symphony, Siemens, Erlangen, Germany) equipped with a home-built receive-transmit coil (cylindrical volume resonator with an inner diameter of 83 mm and a usable length of 120 mm). Prior to in vivo imaging with VCT and MRI, rats are anesthetized with nitrous oxide, oxygen and isoflurane as described above.
T2-weighted imaging is performed using a turbo spin echo sequence (orientation axial, TR 3240 ms, TE 81 ms, matrix 152×256, FOV 90×53.4 mm^2, slice thickness 1.5 mm, 3 averages, scan time 3 min 40 s). For dynamic contrast-enhanced MRI, a saturation recovery turbo flash sequence through the largest diameter of the tumor (orientation axial, TR 373 ms, TE 1.86 ms, matrix 192×144, FOV 130×97.5 mm, slice thickness 5 mm, measurements 512, averages 1, scan time 6 min 55 s) is used. After 20 s baseline, 0.1 mmol/kg Gd-DTPA (Magnevist; Bayer Schering Pharma, Berlin, Germany) is intravenously infused for a time period of 10 s.
Unenhanced VCT images and MRI-acquired T2-weighted images are analyzed using the Medical Imaging Interaction Toolkit (MITK, Heidelberg, Germany) to determine volumes of osteolytic lesions and soft tissue components, respectively. DCE-MRI acquired data is analyzed using the Dynalab workstation (Mevis Research, Bremen, Germany) according to the two-compartment model of Brix to determine the parameters amplitude A and exchange rate constant kep, as described.^23, 30 Briefly, the injected contrast media is distributed in both compartments (intravascular space and extravascular, interstitial space). The accumulation of contrast agent in these compartments over time is characterized by the amplitude A (associated with blood volume), whereas the exchange of contrast agent between the intravascular space and the interstitial space is characterized by the exchange rate constant kep (associated with vessel permeability). For determination of the respective values of the amplitude A and kep of bone metastases in our study, a region of interest is placed around the soft tissue component on color maps for A and kep, respectively, using the Dynalab workstation (Mevis Research, Bremen, Germany). […]

SCC-15 = experiment: In vitro cell viability by MTS assay, SCC-15; type: cell-based, human; details: 5 μg/ml, 24 h
Method: as §1

In the case of `CC(C)[C@H]1C(=O)N[C@@H](CCCN=C(N)N)C(=O)NCC(=O)N[C@@H](CC(=O)O)C(=O)N[C@H](Cc2ccccc2)C(=O)N1C` [Cilengitide, cyclo-(Arg-Gly-Asp-DPhe-NMeVal)], the “effect on radiosensitivity of HNSCC lines” value [1] was “only an additive effect”, the “tumor growth of Her2+ BT474 tumors under monotherapy” value [2] was “did not inhibit the tumor growth” and the radiosensitivity enhancement factor (A549) was 1.56. The “enhancement factor of tumor radioresponse (tumor growth delay)” value ([3]; with single dose of 15 Gy local radiation) was 1.7, the “antitumor activity as a single agent (tumor growth delay)” value ([3]; without radiation) was “no antitumor activity” and the MTD in humans [4] was “no known MTD”. For the same molecule, the radiosensitivity enhancement factor (H1299) was 1.3, the “survival of tumor bearing animals” value [5] was “comparable survival as Taxol” and the “DCE-MRI parameter exchange rate constant kep, mean relative value” ([6]; day 35 (controls 86%; p>0.05)) was 69 % of initial value. The “DCE-MRI parameter amplitude A, mean relative value” ([6]; day 35 post inoculation (controls 106%; p>0.05)) was 97 % of initial value, the “DCE-MRI parameter exchange rate constant kep, mean relative value” ([6]; day 45 (controls 63%; p>0.05)) was 88 % of initial value and the “DCE-MRI parameter amplitude A, mean relative value” ([6]; day 45 (controls 125%; p<0.05)) was 102 % of initial value. For the same molecule, the “DCE-MRI parameter exchange rate constant kep, mean relative value” ([6]; day 55 (controls 40%; p<0.05)) was 72 % of initial value, the “DCE-MRI parameter amplitude A, mean relative value” ([6]; day 55 (controls 105%; p<0.05)) was 93 % of initial value and the in vitro viability (SCC-15) was 71.4±2.2%.
